Data set [1] has as its system thermal allodynia induced by carrageenan in Wistar male rats. Nature of the data set: Thermal allodynia induced by carrageenan. The class given is in vivo, rat. To be noted: only at 50 mg/kg i.p., -1 h (10, 25, 50 mg/kg tested). Here is the method:
In the model of thermal allodynia, the right hindpaw withdrawal latency to a thermal stimulus (Hargreaves apparatus—Ugo Basile, Italy) is determined in rats before the administration of any drug. The intensity of the thermal stimulus is adjusted to induce a basal latency about 12 s. After the basal lecture, carrageenan (1%, 50 μL) is injected into the right hindpaw. This inflammatory stimulus reduces the latency for paw withdrawal induced by the thermal stimulus, which is characterized as thermal allodynia.
In the model of thermal allodynia, the right hindpaw withdrawal latency to a thermal stimulus (Hargreaves apparatus—Ugo Basile, Italy) is determined in rats before the administration of any drug. The intensity of the thermal stimulus is adjusted to induce a basal latency about 12 s. After the basal lecture, carrageenan (1%, 50 μl) is injected into the right hindpaw. This inflammatory stimulus reduces the latency for paw withdrawal induced by the thermal stimulus, which is characterized as thermal allodynia.

Data set [2] has as its system nociceptive response induced by formaldehyde in mice. Nature of the data set: Licking behavior induced by formaldehyde. The class given is in vivo. The protocol: In the first model, licking behaviour induced by formaldehyde (0.92%, 20 μL), the inflammatory stimulus is injected into the dorsum of the right hindpaw of mice. Immediately after the injection, the animals present a nociceptive behaviour characterized by licking and biting the injected paw. The licking time is determined between 0 and 5 min and 15 and 30 min after formaldehyde injection. The first phase results from direct activations of primary afferent fibers and is inhibited mainly by centrally acting drugs such as the opioid analgesics. The second phase is associated with the development of an inflammatory response and facilitation of synaptic transmission in the spinal cord.
In the model of licking behavior induced by formaldehyde, the inflammatory stimulus (0.92%, 20 μL) is injected into the dorsum of the right hindpaw of mice. Immediately after the injection, the animals present a nociceptive behaviour characterized by licking and biting the injected paw. The licking time is determined between 0 and 5 min (first phase) and 15 and 30 min (second phase) after formaldehyde injection. The first phase of the nociceptive response induced by formaldehyde in mice was inhibited by the highest dose of BS (50 mg/kg, i.p.).

Data set [3] deals with Wistar normal rats with electroshock induced seizures. Nature of the data set: Maximum electroshock screening (MES), blockade of hindlimb extension. In kind it is in vivo, rat. The protocol: Comparison of the Anticonvulsant Effect of Free Benzaldehyde Semicarbazone (BS) and the BS/HP-β-CD and BS/β-CD Pharmaceutical Compositions in Wistar Normal Rats with Electroshock Induced Seizures (Maximum Electroshock Screening, MES)
Wistar rats from the main breeding stock of the Institute of Biological Sciences, Federal University of Minas Gerais, Brazil, maintained at the animal facilities of the Physiology Department, weighing 250-300 g, were used. They were kept at 24° C., in groups of 5 per cage receiving chow pellets and water ad libitum. The light/dark cycle was 12 h:12 h, with lights on at 7:00 am and lights off at 7:00 pm. Efforts were made in order to avoid any unnecessary distress to the animals, in accordance to the Guidelines for Animal Experimentation of Federal University of Minas Gerais, Brazil.
Electroshock seizures were induced by electric stimulus, produced by an ELEKTROSCHOCKGERAT apparatus (Karl Kolbe, Scientific Technical Supplies, Frankfurt, Germany) using a current of 70 mA, 60 Hz, during 1 second through a pair of ear clip electrodes.
The behavioral evaluation was carried out by analyzing the tonic component in a four points scale as follows: 0=no seizure; 1=forelimb extension without hind limb extension; 2=complete forelimb extension and partial hind limb extension; 3=complete hind limb extension, which stays parallel to the tail. To evaluate the effect of decreasing on electroshock induced seizures severity, it was taken as criteria the blockade of complete fore- and hind limb extension (score≦1).

In data set [4] the test system is motor activity of mice. Nature of the data set: Motor activity in rota-rod apparatus. In kind it is in vivo. Conditions: 10, 25 or 50 mg/kg i.p.; 30 min after injection; 14 rpm, cut-off 1 min. The protocol:
The effect of BS on the motor activity of mice was evaluated in order to investigate if inhibition of the nociceptive behavior in animals treated with BS would not be the result of a central depressor effect. The motor activity was evaluated in a rota-rod apparatus. During the experiment, the mice were placed on the rota-rod (14 rpm) and the time they spent in the apparatus was determined. The cut-off time was 1 min. After the basal lecture, the animals were treated with BS (10, 25 or 50 mg/kg, intraperitoneal; i.p.). The vehicle used was 25% dimethylsulphoxide (DMSO)+10% tween 80 in saline. Thirty minutes after the injection, the time spent in the rota-rod was determined again.
(In general: The rotarod test checks motor coordination on a turning rod.)

The subject of data set [5] is carrageenan-induced edema in rats. In words: Carrageenan-induced edema. The class given is in vivo, rat. To be noted: 10, 25 or 50 mg/kg i.p., -1 h. Here is the method: To evaluate if a coupound presents antiedematogenic activity, the model of carrageenan-induced edema in rats was used. In this model, before the administration of any drug, the right hindpaw volume is determined with a plethysmomether. After the division of the groups, carrageenan (1%, 50 μL) is injected into the plantar surface. At different times after the injection of carrageenan, the paw volume is determined again. This inflammatory stimulus induces a marked edema that is inhibited by different anti-inflammatory drugs (steroid and non-steroid), inhibitors of nitric oxide synthesis and antagonists of histamine, 5-hydroxytryptamine and bradykinin, inhibitors of nitric oxide syntheses, etc.
To evaluate if BS presents antiedematogenic activity, the model of carrageenan-induced edema in rats was used. In this model, before the administration of any drug, the right hindpaw volume is determined with a plethysmomether. After the division of the groups, carrageenan (1%, 50 μl) is injected into the plantar surface. At different times after the injection of carrageenan, the paw volume is determined again.
Background: The carrageenan paw model is a standard test of acute inflammation.

The subject of data set [6] is angiogenesis induced by sponge implant in Swiss mice. Nature of the data set: Angiogenesis induced by sponge implant, hemoglobin content (vascular index). The class given is in vivo. To be noted: for reduction in the hemoglobin content of implants: vs vehicle-treated group. The protocol:
The experiments were performed in male, Swiss mice (20-30 g; 12 weeks old) from the Animal House of the Institute of Biological Sciences, Federal University of Minas Gerais. Polyether-polyurethane sponge discs 5 mm thickness and 10 mm diameter with central cannula, used as a framework to induce fibrovascular tissue growth, were introduced through a skin incision in the back of mice anesthetized with 2,2,2-tribromoethanol ([…]) [Machado, R. D. P., Santos, R. A. S., Andrade, S. P., Life Sciences 66, 67, 2000]. The animals were housed individually and provided with normal food and water. Housing and anesthesia concurred with the guidelines established by our local Institutional Animal Welfare Committee.
Four more doses were given in the subsequent days. The animals were killed by cervical dislocation 9 days after implantation. The implants were removed and processed for hemoglobin determination (vascular index) using a modified Drabkin's method [Plunkett, M. L., Haley, J. A., Lab. Invest. […] One group of animals received injection of vehicle.

The test system of data set [7] is nociceptive response of mice on hot-plate (57° C.). Nature of the data set: Hot-plate model. The class given is in vivo. Conditions: 10, 25 or 50 mg/kg i.p., -1 h. Here is the method:
In the hot-plate model, the mice are placed over a hot-plate (57° C.). The latency to jump or lick the paws is determined. In this model, direct and immediate activation of peripheral afferent fibbers occurs. Thus, drugs that act mainly in the central nervous system inhibit the nociceptive response in this model.
In the hot-plate model, the mice are placed over a hot-plate (57° C.). The latency to jump or lick the paws is determined. In this model, direct and immediate activation of peripheral afferent fibers occurs. Thus, drugs that act mainly in the central nervous system inhibit the nociceptive response in this model.

For data set [8], the system named is Wistar Audiogenic Rats (WAR) with audiogenic seizures. In words: Audiogenic seizures (AS) in Wistar Audiogenic Rats, blockade of tonic component. In kind it is in vivo, rat. From the text: Comparison of the Anticonvulsant Effect of Free Benzaldehyde Semicarbazone (BS) and the HP-β-CD/BS Pharmaceutical Composition in Wistar Audiogenic Rats (WAR) with Audiogenic Seizures (AS). Typically WARs Present Running Fits, Jumping, Atonic Falling Followed by Tonic-Clonic Seizures and Clonic Spasms when Submitted to High Intensity Sound Stimulus (120 dB SPL)
Female Wistar Audiogenic Rats (WARs) from our own inbred colony, maintained at the animal facilities of the Physiology Department of Federal University of Minas Gerais, Brazil, weighing 250-300 g, were used. They were kept at 24° C., in groups of 5 per cage receiving chow pellets and water ad libitum. The light/dark cycle was 12 h:12 h, with lights on at 7:00 am and lights off at 7:00 pm. Efforts were made in order to avoid any unnecessary distress to the animals, in accordance to the Guidelines for Animal Experimentation of Federal University of Minas Gerais, Brazil.
Audiogenic seizures (AS) were induced by a sound stimulus (120 dB) delivered into an acoustic chamber through a loud speaker, until tonic seizures appeared, or during a maximum of 1 minute. Behavior was evaluated by a severity index (SI) ranging from SI=0.0 to SI=1.0 (maximum).
Typically WARs present running fits, jumping and atonic falling followed by tonic-clonic seizures and clonic spasms (SI≧0.85). Animals were stimulated three times, once every three days before the beginning of experiments, in order to screen them for seizure severity (control recording). Seven days after the third stimulation they were used in the experiments. To evaluate the effect of decreasing on AS severity, it was taken as criteria the blockade of the tonic component of seizure, which means to obtain SI<0.61.

This is an account of results in patent US20080058284A1, “Pharmaceutical compositions of semicarbazones and/or thiosemicarbazones and/or their derivatives and products of these compositions and their uses as anticonvulsant, anti-nociceptive and anti-inflammatory agents, and in the angiogenic therapy” (UNIVERSIDALE FEDERAL DE MINAS GERAIS, priority 2002, published 2008).

As for `NC(=O)NN=Cc1ccccc1` [BS, benzaldehyde semicarbazone], the “nociceptive response in thermal allodynia (paw withdrawal latency)” value in data set [1] is “statistically inhibited”. The “second phase of the nociceptive response (licking time 15-30 min)” value in data set [2] (all doses: 10, 25 and 50 mg/kg i.p., -1 h) is given as “markedly inhibited”. For the same molecule, the “first phase of the nociceptive response (licking time 0-5 min)” value in data set [2] (highest dose, 50 mg/kg i.p.) is “inhibited”. The “animals with hindlimb extension blocked” value in data set [3] (100 mg/Kg ip and vo, males) is “about 90%”. Besides, the “animals in which active, 240 minutes after administration” value in data set [3] (240 minutes after administration (vo)) is “no activity”. Moreover, the “minimum dose necessary to produce anticonvulsant activity” value amounted to 100 mg/kg in data set [3] (ip); 100 mg/kg in data set [3] (vo); 100 mg/kg in data set [8] (vo and ip). Moreover, in data set [4], the “time spent in the rota-rod” value is “did not reduce the time spent in the rota-rod”. Further, in data set [5], the “carrageenan-induced edema (paw volume)” value is given as “inhibited the carrageenan-induced edema”. Further, the “reduction in the hemoglobin content of implants” value in data set [6] (0.05 mg/kg ip, 9 days after implantation) is recorded as “unable to reduce the hemoglobin content”; in data set [6] (the other doses (0.25, 0.5 and 2.5 mg/kg ip)), “more than 50%”. Further, in data set [7], the “anti-nociceptive effect (latency to jump or lick the paws)” value is given as “did not exhibit anti-nociceptive effect”. Moreover, the “animals with tonic component of seizures blocked” value stood at 33% in data set [8] (50 mg/Kg ip), 50% in data set [8] (75 mg/Kg ip) and 83% in data set [8] (100 mg/Kg ip).
On to bromobenzaldehyde semicarbazone [BrBs], for which the “increase in hemoglobin content of implants” value in data set [6] (0.25 mg/kg, relative to the control group) is given as “about 30%”. In addition, in data set [6] (dose not stated), the “increase of hemoglobin content (vascular index), summary statement” value is “more than 30%”.
